pIC50: −log10 of the molar value. Marks after values point to notes of the source that are not given here.
Legend:
RIPK1 = RIPK1 (Homo sapiens (Human), UniProt Q13546); assay: RIPK1 Binding Assay; conditions: displacement of fluorescent probe, TR-FRET
Experimental: Compounds were tested for their ability to displace a fluorescent probe from recombinant human RIPK1.
Recombinant human RIPK1 (1-375) was prepared as described in Harris et al., ACS Med. Chem. Letters (2013) 4:1238-1243 (Supplementary Information), with the following exceptions: (i) instead of using the gene sequence from NM_003804.3, the gene was synthesized with codon optimization for BEV expression system, and (ii) the gene was cloned into the vector pFastBac1, not pDEST8.
A fluorescent probe containing an Oregon green fluorophore was synthesized from a compound known to bind to RIPK1.
The assay was performed in a buffer containing 50 mM N-2-Hydroxyethylpiperazine-N′-2-ethanesulfonic acid (HEPES) (pH 7.5), 10 mM MgCl2, 1 mM ethylene diamine tetraacetic acid (EDTA), and 0.01% BRIJ-35 (Polyoxyethylene (23) lauryl ether). Test compounds were solvated in dimethyl sulfoxide (DMSO) at final concentrations 4-fold serially diluted from 100 to 0.000095 uM in technical duplicates into an empty 384 well plate. Recombinant RIPK1 (final concentration of 2.5 nM) was added to the wells and incubated with test compound for 1 hour at room temperature. A solution containing the fluorescent probe (final concentration 5 nM) and an LanthaScreen Tb-anti-GST antibody (Thermofisher Scientific; final concentration of 5 nM) was then added to each well, with the Tb-anti-GST antibody binding to the GST portion of the recombinant RIPK1 and providing the corresponding FRET pair to the fluorescent probe. The plate was incubated for 1 hour at room temperature and read on an Envision plate reader using a time resolved FRET protocol. Data was normalized and analyzed using Studies from Dotmatics.

U937 cells = assay: U937 TNF/zVAD Cytotoxicity Cell Assay; format: cell-based; conditions: Homo sapiens, U-937; TNFα 10 ng/mL + Z-VAD FMK 20 μM, 16-20 hours; read-out: U937 TNF/zVAD Induced Cytotoxicity IC50
Experimental: Compounds were tested for their ability to prevent TNF induced necroptosis in U937 cells. Treatment with TNF and the caspase inhibitor zVAD-FMK results in the activation and phosphorylation of RIPK1 and subsequent phosphorylation of RIPK3 and MLKL (Mixed Lineage Kinase Domain Like Pseudokinase), leading to induction of necroptotic cell death that is measured as a reduction in cell viability. Similar U937 assay protocols have been previously described; see, e.g., Harris et al., ACS Med. Chem. Letters (2013) 4:1238-1243 and Supplementary Information.
Test compounds were solvated in dimethyl sulfoxide (DMSO) and 3-fold serially diluted from 10 uM to 0.0005 uM with technical duplicates into an empty 384 well plate. U937 cells were resuspended at a concentration of 500,000 cells/mL in fresh RPMI (Roswell Park Memorial Institute) 1640 growth medium containing 10% heat inactivated fetal bovine serum (FB1S) and seeded into a 384 well plate containing compounds and incubated for 1 hour at 37° C. Following incubation, the cells were challenged with TNFα (final concentration of 10 ng/mL) and Z-VAD FMK (N-Benzyloxycarbonyl-Val-Ala-Asp(O-Me) fluoromethyl ketone; final concentration of 20 μM) for 16-20 hours at 37° C. Following the incubation with TNFα/Z-VAD, cells were lysed with Cell Titer-Glo and incubated for 5-10 minutes. The plate was then read on an Envision plate reader. Data was normalized and analyzed with Studies from Dotmatics.

[1] = Prodrug bioconversion in intestinal S9 cell fractions; format: in vitro ADME; conditions: 0.25 mg/mL
Experimental: (§1) Phosphatase enzymes are […] expressed with unique tissue specific isoforms and are key catalysts in the conversion of phosphate-containing prodrugs. To determine if exemplary phosphate prodrug compounds of the invention are enzymatically converted to the parent molecule across relevant species, the prodrug compounds were incubated with intestinal S9 cell fractions obtained from mouse, rat, dog, monkey, and human.
Phosphate prodrugs were incubated (1 μM) for up to 2 hours in Tris-Cl buffer (pH 7.4) containing 3 mM magnesium chloride, intestinal S9 protein ([…] (ms, rat, hu, Table F) from mouse, rat, dog, monkey or human. Incubations were conducted in the absence and presence of 1 mM sodium orthovanadate, a phosphatase inhibitor. Prodrug depletion and parent formation were monitored by LC-MS/MS and normalized to internal standard as the analyte peak area ratio.

[2] = as above; format: in vitro ADME
Experimental: as §1
[…] Incubations were conducted in the absence and presence of 1 mM sodium orthovanadate, a phosphatase inhibitor. Prodrug depletion and parent formation were monitored by LC-MS/MS and normalized to internal standard as the analyte peak area ratio.

RIPK1, sequence (Q13546 1-375): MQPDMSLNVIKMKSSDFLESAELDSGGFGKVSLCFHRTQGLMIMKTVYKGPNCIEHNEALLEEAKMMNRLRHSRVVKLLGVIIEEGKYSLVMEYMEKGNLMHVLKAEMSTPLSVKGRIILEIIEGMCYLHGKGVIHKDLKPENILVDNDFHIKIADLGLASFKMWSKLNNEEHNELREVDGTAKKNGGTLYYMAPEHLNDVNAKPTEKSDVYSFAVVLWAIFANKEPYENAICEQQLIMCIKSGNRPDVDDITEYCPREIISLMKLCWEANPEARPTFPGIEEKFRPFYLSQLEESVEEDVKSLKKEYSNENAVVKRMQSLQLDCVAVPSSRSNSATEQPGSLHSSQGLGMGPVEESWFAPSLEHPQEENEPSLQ

CN(C[C@@H](O)Cc1ccccc1)C(=O)c1cncc(C#Cc2cnn(C(F)F)c2)c1 [Example 2, (S)-5-((1-(difluoromethyl)-1H-pyrazol-4-yl)ethynyl)-N-(2-hydroxy-3-phenylpropyl)-N-methylnicotinamide]
pIC50 (RIPK1): 8.40 | pIC50 (U937 cells): 7.96

CN(C[C@H](Cc1ccccc1)OP(=O)(O)O)C(=O)c1cncc(C#Cc2cnn(C(F)F)c2)c1 [Example 19, (S)-1-(5-((1-(difluoromethyl)-1H-pyrazol-4-yl)ethynyl)-N-methylnicotinamido)-3-phenylpropan-2-yl dihydrogen phosphate]
Clint (prodrug disappearance) ([1]; Dog, Experiment 1): 331 μL/min/mg intestinal S9 protein | Clint (prodrug disappearance) ([1]; Dog, Experiment 2): 387 μL/min/mg intestinal S9 protein | Clint (prodrug disappearance) ([1]; Dog, Experiment 3): 397 μL/min/mg intestinal S9 protein | Clint (prodrug disappearance) ([1]; Dog, Mean of 3 experiments): 371.7 μL/min/mg intestinal S9 protein | Clint (prodrug disappearance) ([1]; Monkey, Experiment 1): 87.5 μL/min/mg intestinal S9 protein | Clint (prodrug disappearance) ([1]; Monkey, Experiment 2): 60.3 μL/min/mg intestinal S9 protein | Clint (prodrug disappearance) ([1]; Monkey, Experiment 3): 60.7 μL/min/mg intestinal S9 protein | Clint (prodrug disappearance) ([1]; Monkey, Mean of 3 experiments): 69.5 μL/min/mg intestinal S9 protein | Clint (prodrug disappearance) ([2]; Human, 0.01 mg/mL S9 protein, Table F): 1608.5 μL/min/mg intestinal S9 protein | Clint (prodrug disappearance) ([2]; Human, 0.25 mg/mL S9 protein, Table F): 296 μL/min/mg intestinal S9 protein | Clint (prodrug disappearance) ([2]; Human, 0.25 mg/mL, Experiment 1): 246 μL/min/mg intestinal S9 protein | Clint (prodrug disappearance) ([2]; Human, 0.25 mg/mL, Experiment 2): 228 μL/min/mg intestinal S9 protein | Clint (prodrug disappearance) ([2]; Human, 0.25 mg/mL, Experiment 3): 235 μL/min/mg intestinal S9 protein | Clint (prodrug disappearance) ([2]; Human, 0.25 mg/mL, Mean of 3 experiments): 236.3 μL/min/mg intestinal S9 protein | Clint (prodrug disappearance) ([2]; Mouse, 0.01 mg/mL S9 protein, Table F): 116.8 μL/min/mg intestinal S9 protein | Clint (prodrug disappearance) ([2]; Mouse, 0.25 mg/mL S9 protein, Table F): 54.7 μL/min/mg intestinal S9 protein | Clint (prodrug disappearance) ([2]; Mouse, 0.25 mg/mL, Experiment 1): 43.1 μL/min/mg intestinal S9 protein | Clint (prodrug disappearance) ([2]; Mouse, 0.25 mg/mL, Experiment 2): 74.6 μL/min/mg intestinal S9 protein | Clint (prodrug disappearance) ([2]; Mouse, 0.25 mg/mL, Experiment 3): 42.2 μL/min/mg intestinal S9 protein | Clint (prodrug disappearance) ([2]; Mouse, 0.25 mg/mL, Mean of 3 experiments): 53.3 μL/min/mg intestinal S9 protein | Clint (prodrug disappearance) ([2]; Rat, 0.01 mg/mL S9 protein, Table F): <137** μL/min/mg intestinal S9 protein | Clint (prodrug disappearance) ([2]; Rat, 0.25 mg/mL S9 protein, Table F): 42.4 μL/min/mg intestinal S9 protein | Clint (prodrug disappearance) ([2]; Rat, 0.25 mg/mL, Experiment 1): 25.6 μL/min/mg intestinal S9 protein | Clint (prodrug disappearance) ([2]; Rat, 0.25 mg/mL, Experiment 2): 16.9 μL/min/mg intestinal S9 protein | Clint (prodrug disappearance) ([2]; Rat, 0.25 mg/mL, Experiment 3): 50.6 μL/min/mg intestinal S9 protein | Clint (prodrug disappearance) ([2]; Rat, 0.25 mg/mL, Mean of 3 experiments): 31 μL/min/mg intestinal S9 protein

— patent publication US11767310B2, “Nicotinamide RIPK1 inhibitors” (AbbVie Inc., priority 2021, dated 2023)
